Experimental data taken from PubChem BioAssay AID206 (DTP/NCI, 2004).
“And” between values parts separate entries of the source, which are not always exact repeats. Equal entries are not always repeated. Results filed as inconclusive are left out.

Tested on: nude mice, HT29 intrarenal xenograft, tumor weight T/C
Experiment: NCI In Vivo Anticancer Drug Screen. Data for tumor model HT29;CX-1 Human Adenocarcinoma (MER+) (intrarenal inoculation) in NU/NU Swiss (nude) mice
Conditions: endpoint: mean tumor weight change, higher = larger tumour
Outline: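 Compounds were given to mice carrying transplantable tumors; a vehicle-dosed group served as control. The endpoint measured in each group was compared as a T/C quotient.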

[1] = dose: 300.0 mg/kg/injection, schedule: Q04DX004 (sc), vehicle: saline with Tween-80
[2] = dose: 600.0 mg/kg/injection, schedule: Q04DX004 (sc), vehicle: saline with Tween-80
[3] = dose: 300.0 mg/kg/injection, schedule: Q04DX004 (sc), vehicle: Klucel (hydroxypropylcellulose) (HPC)
[4] = dose: 600.0 mg/kg/injection, schedule: Q04DX004 (sc), vehicle: Klucel (hydroxypropylcellulose) (HPC)
[5] = dose: 1200.0 mg/kg/injection, schedule: Q04DX004 (sc), vehicle: Klucel (hydroxypropylcellulose) (HPC)
[6] = dose: 100.0 mg/kg/injection, schedule: Q04DX004 (sc), vehicle: saline with Tween-80
[7] = dose: 50.0 mg/kg/injection, schedule: Q01DX010 (sc), vehicle: saline with Tween-80
[8] = dose: 100.0 mg/kg/injection, schedule: Q01DX010 (sc), vehicle: saline with Tween-80
[9] = dose: 150.0 mg/kg/injection, schedule: Q04DX004 (sc), vehicle: saline with Tween-80
[10] = dose: 50.0 mg/kg/injection, schedule: Q01DX010 (sc), vehicle: saline

Structure (SMILES): CCCCCc1cc(O)c2c(c1)OC(C)(C)[C@@H]1CCC(C)=C[C@@H]21
- T/C (dose: 150.0 mg/kg/injection, schedule: Q04DX004 (sc), vehicle: other): 117 % of control
- T/C (dose: 300.0 mg/kg/injection, schedule: Q04DX004 (sc), vehicle: other): 76 % of control
- T/C (dose: 600.0 mg/kg/injection, schedule: Q04DX004 (sc), vehicle: other): 68 % of control
- T/C (dose: 1200.0 mg/kg/injection, schedule: Q04DX004 (sc), vehicle: other): 36 % of control

Structure (SMILES): CN(C)CCN1C(=O)c2cccc3cc([N+](=O)[O-])cc(c23)C1=O
- T/C (dose: 18.0 mg/kg/injection, schedule: Q04DX004 (sc), vehicle: saline with Tween-80): 95 % of control

Structure (SMILES): CC(=O)N(C)C
- T/C (dose: 1350.0 mg/kg/injection, schedule: Q04DX004 (sc), vehicle: saline): 112 % of control
- T/C (dose: 2700.0 mg/kg/injection, schedule: Q04DX004 (sc), vehicle: saline): 45 % of control

Structure (SMILES): CS(=O)(=O)CS(=O)(=O)OCCCl
- T/C (dose: 37.5 mg/kg/injection, schedule: Q04DX004 (sc), vehicle: suspension in saline): 363 % of control
- T/C (dose: 75.0 mg/kg/injection, schedule: Q04DX004 (sc), vehicle: suspension in saline): 187 % of control
- T/C (dose: 150.0 mg/kg/injection, schedule: Q04DX004 (sc), vehicle: suspension in saline): 150 % of control

Structure (SMILES): NC(=S)N/N=C/c1ccc(OC(=O)COc2ccc(Cl)cc2)cn1
- T/C [1]: 103 % of control
- T/C [2]: 150 % of control

Structure (SMILES): COc1cc(C(=O)c2cc3c(cc2C)OCO3)cc(OC)c1OC
- T/C [3]: 83 % of control
- T/C [4]: 64 % of control
- T/C [5]: 82 % of control

Structure (SMILES): C=C(C)C(=NC(C)(C)C)Nc1ccccc1
- T/C [6]: 52 % of control

Structure (SMILES): C=C1C(=O)OCC1C(=O)O (stereo unspecified)
- T/C (dose: 50.0 mg/kg/injection, schedule: Q04DX004 (sc), vehicle: suspension in saline): 87 % of control
- T/C (dose: 100.0 mg/kg/injection, schedule: Q04DX004 (sc), vehicle: suspension in saline): 48 % of control
- T/C (dose: 200.0 mg/kg/injection, schedule: Q04DX004 (sc), vehicle: suspension in saline): 48 % of control

Structure (SMILES): CC1=CC(C)(C)Nc2ccc(CSc3ccccc3)cc21
- T/C (dose: 75.0 mg/kg/injection, schedule: Q01DX010 (sc), vehicle: saline + Tween-80 + alcohol): 53 % of control
- T/C (dose: 150.0 mg/kg/injection, schedule: Q01DX010 (sc), vehicle: saline + Tween-80 + alcohol): 74 % of control
- T/C (dose: 300.0 mg/kg/injection, schedule: Q01DX010 (sc), vehicle: saline + Tween-80 + alcohol): 50 % of control
- T/C (dose: 600.0 mg/kg/injection, schedule: Q01DX010 (sc), vehicle: saline + Tween-80 + alcohol): 66 % of control

Structure (SMILES): CSc1nc(=O)[nH]nc1SCc1ccccc1
- T/C (dose: 200.0 mg/kg/injection, schedule: Q04DX004 (sc), vehicle: Klucel (hydroxypropylcellulose) (HPC)): 76 % of control
- T/C (dose: 400.0 mg/kg/injection, schedule: Q04DX004 (sc), vehicle: Klucel (hydroxypropylcellulose) (HPC)): 56 % of control
- T/C (dose: 800.0 mg/kg/injection, schedule: Q04DX004 (sc), vehicle: Klucel (hydroxypropylcellulose) (HPC)): 90 % of control

Structure (SMILES): CCOC(OCC)C(=O)OCC(=O)[C@]1(O)Cc2c(O)c3c(c(O)c2[C@@H](OC2CC(N)C(O)C(C)O2)C1)C(=O)c1c(OC)cccc1C3=O (stereo partly specified)
- T/C (dose: 20.0 mg/kg/injection, schedule: Q04DX004 (sc), vehicle: water): 33 % of control

Structure (SMILES): C/C(=N/NC(N)=S)c1ccc2ccccc2c1
- T/C (dose: 12.5 mg/kg/injection, schedule: Q01DX010 (sc), vehicle: saline with Tween-80): 177 % of control
- T/C (dose: 25.0 mg/kg/injection, schedule: Q01DX010 (sc), vehicle: saline with Tween-80): 70 % of control
- T/C [7]: 57 % of control
- T/C [8]: 89 % of control

Structure (SMILES): Cn1c2nc(=O)n(-c3ccccc3)c(=O)c-2nc2c1CCCC2
- T/C [9]: 106 % of control
- T/C [1]: 32 % of control

Structure (SMILES): CO[C@H]1C[C@@H]2CC[C@@H](C)[C@@](O)(O2)C(=O)C(=O)N2CCCC[C@H]2C(=O)O[C@H]([C@H](C)C[C@@H]2CC[C@@H](O)[C@H](OC)C2)CC(=O)[C@H](C)C=C(C)[C@@H](O)[C@@H](OC)C(=O)[C@H](C)C[C@H](C)/C=C/C=C/C=C1C
- T/C [7]: 28 % of control

Structure (SMILES): COC(=O)NC1C(C)OC(OC2C/C=C(/C)C3C=CC4C(OC5CC(OC6CCC(OC7CC(O)C(OC8CCC(O)C(C)O8)C(C)O7)C(C)O6)C(OC(C)=O)C(C)O5)C(C)CC(C)C4C3(C)/C(O)=C3/C(=O)OC4(CC(C=O)=CC(O)C4/C=C\2C)C3=O)CC1(C)[N+](=O)[O-] (stereo unspecified)
- T/C (dose: 12.5 mg/kg/injection, schedule: Q04DX004 (sc), vehicle: other): 92 % of control
- T/C (dose: 25.0 mg/kg/injection, schedule: Q04DX004 (sc), vehicle: other): 103 % of control
- T/C (dose: 50.0 mg/kg/injection, schedule: Q04DX004 (sc), vehicle: other): 51 % of control

Structure (SMILES): C[C@]12CCC(=O)C=C1CC[C@@H]1[C@@H]2C(=O)C[C@@]2(C)[C@H]1CC[C@]2(O)C(=O)CO
- T/C [3]: 55 % of control
- T/C [4]: 42 % of control
- T/C [5]: 42 % of control

Structure (SMILES): CCO/C=C1\SC(=S)N(c2ccccc2C)C1=O
- T/C [8]: 80 % of control
- T/C (dose: 200.0 mg/kg/injection, schedule: Q01DX010 (sc), vehicle: saline with Tween-80): 102 % of control
- T/C (dose: 400.0 mg/kg/injection, schedule: Q01DX010 (sc), vehicle: saline with Tween-80): 177 % of control
- T/C (dose: 800.0 mg/kg/injection, schedule: Q01DX010 (sc), vehicle: saline with Tween-80): 107 % of control

Structure (SMILES): NC(C/[N+]([O-])=N/O)C(=O)O (stereo unspecified)
- T/C [10]: 186 % of control
- T/C (dose: 100.0 mg/kg/injection, schedule: Q01DX010 (sc), vehicle: saline): 53 % of control

Structure (SMILES): C=C(NC(=O)C(=C)NC(=O)c1csc(C2=NC3c4csc(n4)C4NC(=O)c5csc(n5)C(C(C)(O)C(C)O)NC(=O)C5CSC(=N5)/C(=C/C)NC(=O)C(C(C)O)NC(=O)c5csc(n5)C3(CC2)NC(=O)C(C)NC(=O)C(=C)NC(=O)C(C)NC(=O)C(C(C)CC)NC2C=Cc3c(C(C)O)cc(nc3C2O)C(=O)OC4C)n1)C(N)=O (stereo unspecified)
- T/C (dose: 200.0 mg/kg/injection, schedule: Q01DX010 (sc), vehicle: Klucel (hydroxypropylcellulose) (HPC)): 34 % of control
- T/C (dose: 800.0 mg/kg/injection, schedule: Q01DX010 (sc), vehicle: Klucel (hydroxypropylcellulose) (HPC)): 27 % of control and 49 % of control
- T/C (dose: 3200.0 mg/kg/injection, schedule: Q01DX010 (sc), vehicle: Klucel (hydroxypropylcellulose) (HPC)): 50 % of control

Structure (SMILES): CCN(CC)CCCNc1nccc2c(C)c3[nH]c4ccncc4c3cc12
- T/C (dose: 2.5 mg/kg/injection, schedule: Q01DX010 (sc), vehicle: other): 117 % of control
- T/C (dose: 5.0 mg/kg/injection, schedule: Q01DX010 (sc), vehicle: other): 108 % of control
- T/C (dose: 10.0 mg/kg/injection, schedule: Q01DX010 (sc), vehicle: other): 56 % of control

Structure (SMILES): COc1cccc2c1C(=O)c1c(O)c3c(c(O)c1C2=O)C[C@H](O)C[C@@H]3OC1CC(N)C(O)C(C)O1 (stereo partly specified)
- T/C (dose: 12.5 mg/kg/injection, schedule: Q01DX010 (sc), vehicle: saline): 114 % of control
- T/C (dose: 25.0 mg/kg/injection, schedule: Q01DX010 (sc), vehicle: saline): 41 % of control
- T/C [10]: 87 % of control

Structure (SMILES): CC(C)NC(=O)OCc1c(COC(=O)NC(C)C)c(-c2ccc(Cl)c(Cl)c2)n2c1CCC2
- T/C (dose: 25.0 mg/kg/injection, schedule: Q01DX010 (sc), vehicle: distilled water + Tween-80): 107 % of control
- T/C (dose: 50.0 mg/kg/injection, schedule: Q01DX010 (sc), vehicle: distilled water + Tween-80): 15 % of control
- T/C (dose: 200.0 mg/kg/injection, schedule: Q01DX010 (sc), vehicle: distilled water + Tween-80): 60 % of control and 78 % of control
- T/C (dose: 800.0 mg/kg/injection, schedule: Q01DX010 (sc), vehicle: distilled water + Tween-80): 44 % of control

Structure (SMILES): CCN1/C(=C/C=C/C=C/c2sc3ccccc3[n+]2CC)Sc2ccccc21
- T/C (dose: 0.38 mg/kg/injection, schedule: Q04DX004 (sc), vehicle: suspension in saline): 77 % of control
- T/C (dose: 0.75 mg/kg/injection, schedule: Q04DX004 (sc), vehicle: suspension in saline): 72 % of control
- T/C (dose: 1.5 mg/kg/injection, schedule: Q04DX004 (sc), vehicle: suspension in saline): 104 % of control
- T/C (dose: 3.0 mg/kg/injection, schedule: Q04DX004 (sc), vehicle: suspension in saline): 89 % of control

Structure (SMILES): O/N=C/c1ccccc1O.O/N=C/c1ccccc1O.[Cu]
- T/C (dose: 25.0 mg/kg/injection, schedule: Q04DX004 (sc), vehicle: saline with Tween-80): 76 % of control
- T/C (dose: 50.0 mg/kg/injection, schedule: Q04DX004 (sc), vehicle: saline with Tween-80): 39 % of control
- T/C [6]: 43 % of control
- T/C (dose: 200.0 mg/kg/injection, schedule: Q04DX004 (sc), vehicle: saline with Tween-80): 61 % of control

Structure (SMILES): CNc1cccnc1/C=N/NC(N)=S
- T/C (dose: 75.0 mg/kg/injection, schedule: Q04DX004 (sc), vehicle: saline with Tween-80): 83 % of control
- T/C [9]: 110 % of control
- T/C [1]: 33 % of control
- T/C [2]: 58 % of control
